Columns and labels:
Format in all cases: in vivo
[1] = tested on: giant foxtail (Setaria faberii); test: Test A postemergence; conditions: Setaria faberi, post-emergence, 240 h; for pest or weed control at 125 g/ha: 125 g ai/ha, postemergence, visual injury on 0 to 100 scale (0 no effect, 100 complete control), approx. 10 d, read-out: Foxtail, Giant plant response rating; for pest or weed control at 31 g/ha: Postemergence, 31 g ai/ha, visual injury after approx. 10 d, 0 to 100 scale, 0 no effect, 100 complete control, read-out: Plant response rating, Foxtail, Giant
Procedure, shortened: (§1)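 Ratings of 0 (no effect) to 100 (complete control) come from visual comparison with untreated controls roughly 10 d after treatment. Test chemicals, formulated in a non-phytotoxic solvent mixture with surfactant, were applied either as a preemergence directed soil spray on seeded soil or postemergence to one- to two-leaf plants 2 to 10 cm tall.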

[2] = tested on: blackgrass (Alopecurus myosuroides); test: Test A postemergence; conditions: Alopecurus myosuroides, post-emergence, 240 h; for pest or weed control at 125 g/ha: 125 g ai/ha, postemergence, visual injury on 0 to 100 scale (0 no effect, 100 complete control), approx. 10 d, read-out: Blackgrass plant response rating; for pest or weed control at 31 g/ha: Postemergence, 31 g ai/ha, visual injury after approx. 10 d, 0 to 100 scale, 0 no effect, 100 complete control, read-out: Plant response rating, Blackgrass
Procedure, shortened: as §1

[3] = tested on: barnyardgrass (Echinochloa crus-galli); test: Test A postemergence; conditions: Echinochloa crus-galli, post-emergence, 240 h; for pest or weed control at 125 g/ha: 125 g ai/ha, postemergence, visual injury on 0 to 100 scale (0 no effect, 100 complete control), approx. 10 d, read-out: Barnyardgrass plant response rating; for pest or weed control at 31 g/ha: Postemergence, 31 g ai/ha, visual injury after approx. 10 d, 0 to 100 scale, 0 no effect, 100 complete control, read-out: Plant response rating, Barnyardgrass
Procedure, shortened: as §1

[4] = tested on: ryegrass, Italian (Italian ryegrass, Lolium multiflorum); test: Test A postemergence; conditions: Lolium multiflorum, post-emergence, 240 h; for pest or weed control at 125 g/ha: 125 g ai/ha, postemergence, visual injury on 0 to 100 scale (0 no effect, 100 complete control), approx. 10 d, read-out: Ryegrass, Italian plant response rating; for pest or weed control at 31 g/ha: Postemergence, 31 g ai/ha, visual injury after approx. 10 d, 0 to 100 scale, 0 no effect, 100 complete control, read-out: Plant response rating, Ryegrass, Italian
Procedure, shortened: as §1

[5] = tested on: wheat (Triticum aestivum); test: Test A postemergence; conditions: Triticum aestivum, post-emergence, 240 h; for plant injury at 125 g/ha: 125 g ai/ha, postemergence, visual injury on 0 to 100 scale (0 no effect, 100 complete control), approx. 10 d, read-out: Wheat plant response rating; for plant injury at 31 g/ha: Postemergence, 31 g ai/ha, visual injury after approx. 10 d, 0 to 100 scale, 0 no effect, 100 complete control, read-out: Plant response rating, Wheat
Procedure, shortened: as §1

[6] = tested on: ragweed (common ragweed, Ambrosia elatior); test: Test A postemergence; conditions: Ambrosia artemisiifolia, post-emergence, 240 h; for pest or weed control at 125 g/ha: 125 g ai/ha, postemergence, visual injury on 0 to 100 scale (0 no effect, 100 complete control), approx. 10 d, read-out: Ragweed plant response rating; for pest or weed control at 31 g/ha: Postemergence, 31 g ai/ha, visual injury after approx. 10 d, 0 to 100 scale, 0 no effect, 100 complete control, read-out: Plant response rating, Ragweed
Procedure, shortened: as §1

Kochia (Kochia scoparia) [7] = test: Test A postemergence; conditions: Bassia scoparia, post-emergence, 240 h; for pest or weed control at 125 g/ha: 125 g ai/ha, postemergence, visual injury on 0 to 100 scale (0 no effect, 100 complete control), approx. 10 d, read-out: Kochia plant response rating; for pest or weed control at 31 g/ha: Postemergence, 31 g ai/ha, visual injury after approx. 10 d, 0 to 100 scale, 0 no effect, 100 complete control, read-out: Plant response rating, Kochia
Procedure, shortened: as §1

[8] = tested on: pigweed (Amaranthus retroflexus); test: Test A postemergence; conditions: Amaranthus retroflexus, post-emergence, 240 h; for pest or weed control at 125 g/ha: 125 g ai/ha, postemergence, visual injury on 0 to 100 scale (0 no effect, 100 complete control), approx. 10 d, read-out: Pigweed plant response rating; for pest or weed control at 31 g/ha: Postemergence, 31 g ai/ha, visual injury after approx. 10 d, 0 to 100 scale, 0 no effect, 100 complete control, read-out: Plant response rating, Pigweed
Procedure, shortened: as §1

corn (Zea mays) = test: Test A postemergence; conditions: Zea mays, post-emergence, 240 h; for plant injury at 125 g/ha: 125 g ai/ha, postemergence, visual injury on 0 to 100 scale (0 no effect, 100 complete control), approx. 10 d, read-out: Corn plant response rating; for Corn plant response rating (crop injury, 0 = no effect, 100 = complete kill) at 31 g/ha: Postemergence, 31 g ai/ha, visual injury after approx. 10 d, 0 to 100 scale, 100 complete control
Procedure, shortened: as §1

[9] = tested on: giant foxtail (Setaria faberii); test: Test A preemergence; conditions: Setaria faberi, pre-emergence, 240 h, 0 to 100 scale where 0 is no effect and 100 is complete control, read-out: Foxtail, Giant plant response rating; for pest or weed control at 31 g/ha: 31 g ai/ha, Preemergence; for pest or weed control at 125 g/ha: 125 g ai/ha, preemergence, approx. 10 d
Procedure, shortened: as §1

[10] = tested on: barnyardgrass (Echinochloa crus-galli); test: Test A preemergence; conditions: Echinochloa crus-galli, pre-emergence, 240 h, 0 to 100 scale where 0 is no effect and 100 is complete control, read-out: Barnyardgrass plant response rating; for pest or weed control at 31 g/ha: 31 g ai/ha, Preemergence; for pest or weed control at 125 g/ha: 125 g ai/ha, preemergence, approx. 10 d
Procedure, shortened: as §1

[11] = tested on: ryegrass, Italian (Italian ryegrass, Lolium multiflorum); test: Test A preemergence; conditions: Lolium multiflorum, pre-emergence, 240 h, 0 to 100 scale where 0 is no effect and 100 is complete control, read-out: Ryegrass, Italian plant response rating; for pest or weed control at 31 g/ha: 31 g ai/ha, Preemergence; for pest or weed control at 125 g/ha: 125 g ai/ha, preemergence, approx. 10 d
Procedure, shortened: as §1

[12] = tested on: ragweed (common ragweed, Ambrosia elatior); test: Test A preemergence; conditions: Ambrosia artemisiifolia, pre-emergence, 240 h, 0 to 100 scale where 0 is no effect and 100 is complete control, read-out: Ragweed plant response rating; for pest or weed control at 31 g/ha: 31 g ai/ha, Preemergence; for pest or weed control at 125 g/ha: 125 g ai/ha, preemergence, approx. 10 d
Procedure, shortened: as §1

Kochia (Kochia scoparia) [13] = test: Test A preemergence; conditions: Bassia scoparia, pre-emergence, 240 h, 0 to 100 scale where 0 is no effect and 100 is complete control, read-out: Kochia plant response rating; for pest or weed control at 31 g/ha: 31 g ai/ha, Preemergence; for pest or weed control at 125 g/ha: 125 g ai/ha, preemergence, approx. 10 d
Procedure, shortened: as §1

[14] = tested on: pigweed (Amaranthus retroflexus); test: Test A preemergence; conditions: Amaranthus retroflexus, pre-emergence, 240 h, 0 to 100 scale where 0 is no effect and 100 is complete control, read-out: Pigweed plant response rating; for pest or weed control at 31 g/ha: 31 g ai/ha, Preemergence; for pest or weed control at 125 g/ha: 125 g ai/ha, preemergence, approx. 10 d
rice (Oryra sativa) = test: Test B flooded paddy test; conditions: Oryza sativa, 250 g ai/ha, Flood; 0 to 100 scale where 0 is no effect and 100 is complete control; read-out: Rice plant response rating
Procedure, shortened: (§2)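 Rating scale 0–100 (visual, vs untreated controls) after a 13–15 d greenhouse period; application to the flood layer, 3 cm above soil and maintained; plants at 2-leaf stage when treated.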

[15] = tested on: ducksalad (Heteranthera limosa); test: Test B flooded paddy test; conditions: Heteranthera limosa, 250 g ai/ha, Flood; 0 to 100 scale where 0 is no effect and 100 is complete control; read-out: Ducksalad plant response rating
Procedure, shortened: as §2

[16] = tested on: sedge, umbrella (small-flower umbrella sedge, Cyperus difformis); test: Test B flooded paddy test; conditions: Cyperus difformis, 250 g ai/ha, Flood; 0 to 100 scale where 0 is no effect and 100 is complete control; read-out: Sedge, Umbrella plant response rating
Procedure, shortened: as §2

[17] = tested on: barnyardgrass (Echinochloa crus-galli); test: Test B flooded paddy test; conditions: Echinochloa crus-galli, 250 g ai/ha, Flood; 0 to 100 scale where 0 is no effect and 100 is complete control; read-out: Barnyardgrass plant response rating
Procedure, shortened: as §2

SMILES	pest or weed control at 125 g/ha [1] [%]	pest or weed control at 31 g/ha [1] [%]	pest or weed control at 125 g/ha [2] [%]	pest or weed control at 31 g/ha [2] [%]	pest or weed control at 125 g/ha [3] [%]	pest or weed control at 31 g/ha [3] [%]	pest or weed control at 125 g/ha [4] [%]	pest or weed control at 31 g/ha [4] [%]	plant injury at 125 g/ha [5] [%]	plant injury at 31 g/ha [5] [%]	pest or weed control at 125 g/ha [6] [%]	pest or weed control at 31 g/ha [6] [%]	pest or weed control at 125 g/ha (Kochia (Kochia scoparia) [7]) [%]	pest or weed control at 31 g/ha (Kochia (Kochia scoparia) [7]) [%]	pest or weed control at 125 g/ha [8] [%]	pest or weed control at 31 g/ha [8] [%]	plant injury at 125 g/ha (corn (Zea mays)) [%]	Corn plant response rating (crop injury, 0 = no effect, 100 = complete kill) at 31 g/ha (corn (Zea mays)) [%]	pest or weed control at 31 g/ha [9] [%]	pest or weed control at 125 g/ha [9] [%]	other results
CSc1ccccc1NC(=O)[C@H]1C(=O)N(C)C[C@@H]1c1ccc(F)c(OC(C)C)c1 [Compound 1076]	50	0	20	0	50	0	0	0	0	0	0	0	0	0	0	0	0	0	80	100	pest or weed control at 31 g/ha [10]: 0%; pest or weed control at 125 g/ha [10]: 90%; pest or weed control at 31 g/ha [11]: 0%; pest or weed control at 125 g/ha [11]: 0%; pest or weed control at 31 g/ha [12]: 10%; pest or weed control at 125 g/ha [12]: 0%; pest or weed control at 31 g/ha (Kochia (Kochia scoparia) [13]): 0%; pest or weed control at 125 g/ha (Kochia (Kochia scoparia) [13]): 0%; pest or weed control at 31 g/ha [14]: 0%; pest or weed control at 125 g/ha [14]: 20%; pest or weed control at 250 g/ha (rice (Oryra sativa)): 40%; pest or weed control at 250 g/ha [15]: 90%; pest or weed control at 250 g/ha [16]: 0%; pest or weed control at 250 g/ha [17]: 20%
Cc1c(F)cccc1NC(=O)[C@H]1C(=O)N(C)C[C@@H]1c1cc(C(F)F)cs1 [Compound 1089]	90	80	30	0	90	60	0	0	30	0	20	0	0	0	0	0	30	0	100	100	pest or weed control at 31 g/ha [10]: 90%; pest or weed control at 125 g/ha [10]: 90%; pest or weed control at 31 g/ha [11]: 0%; pest or weed control at 125 g/ha [11]: 10%; pest or weed control at 31 g/ha [12]: 0%; pest or weed control at 125 g/ha [12]: 60%; pest or weed control at 31 g/ha (Kochia (Kochia scoparia) [13]): 0%; pest or weed control at 125 g/ha (Kochia (Kochia scoparia) [13]): 20%; pest or weed control at 31 g/ha [14]: 0%; pest or weed control at 125 g/ha [14]: 0%; pest or weed control at 250 g/ha (rice (Oryra sativa)): 0%; pest or weed control at 250 g/ha [15]: 85%; pest or weed control at 250 g/ha [16]: 0%; pest or weed control at 250 g/ha [17]: 90%

Source: patent US12077503B2, “Substituted cyclic amides and their use as herbicides” (FMC CORPORATION, priority 2015, dated 2024)
